What all share (format): cell-based
One assay relates to E. coli J53 Alone. Kind of assay: MIC determination, isogenic E. coli strains. Particulars: for MIC: Escherichia coli, J53ALONE, 18 h, read-out: Mimimum Inhibitory Concentrations, J53 Alone; for Mimimum Inhibitory Concentrations, J53 Alone: Table 4-2, CAMH broth, 20 μM Apo-Transferrin, 37° C., 18 hours. The procedure, abridged: (§1)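 Broth microdilution in cation-adjusted Mueller-Hinton broth with 20 μM apo-transferrin, 2-fold compound series from 64 μg/mL. E. coli J53, alone or transformed with a pBC-SK(+) plasmid carrying the beta-lactamase gene (e.g. DHA-1), inoculated from 0.5 McFarland suspension; 18 h at 37° C; MIC = lowest concentration with clear well.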

Assay [1] relates to Isogenic E. coli J58 strain carrying DHA-1. The assay is described as follows: MIC determination, isogenic E. coli strains. The following applies: Escherichia coli, 18 h, read-out: Mimimum Inhibitory Concentrations, DHA-1. In outline:
as §1

Assay [2] deals with Isogenic E. coli J58 strain carrying TEM-26. The assay is described as follows: MIC determination, isogenic E. coli strains. Particulars: Escherichia coli, 18 h, read-out: Mimimum Inhibitory Concentrations, TEM-26. The procedure, abridged: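 Broth microdilution in cation-adjusted Mueller-Hinton broth with 20 μM apo-transferrin, compound […] in twofold steps, inoculum from 0.5 McFarland suspension. E. coli J53 transformed with pBC-SK(+) encoding TEM-26; 18 h at 37° C, MIC as lowest concentration giving a clear well.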

In assay [3] the test system is Isogenic E. coli J58 strain carrying CTX-M-14. Kind of assay: MIC determination, isogenic E. coli strains. The following applies: Escherichia coli, 18 h, read-out: Mimimum Inhibitory Concentrations, CTX-M-14. The procedure, abridged:
(§2)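 Isogenic E. coli J53 carrying plasmid-encoded CTX-M-14 or CTX-M-15 (ampicillin-selected), standardized to 0.08-0.1 OD600, incubated overnight (18 h, 37° C.) in CAMH broth plus 20 μM apo-transferrin over 2-fold compound dilutions starting at 64 μg/mL. Lowest concentration with no visible growth recorded as MIC.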

The test system of assay [4] is Isogenic E. coli J58 strain carrying CTX-M-15. Kind of assay: MIC determination, isogenic E. coli strains. The following applies: Escherichia coli, 18 h, read-out: Mimimum Inhibitory Concentrations, CTX-M-15. In outline: as §2
In assay [5] the test system is Isogenic E. coli J58 strain carrying KPC-2. Kind of assay: MIC determination, isogenic E. coli strains. The following applies: Escherichia coli, 18 h, read-out: Mimimum Inhibitory Concentrations, KPC-2. The procedure, abridged: (§3)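 Broth microdilution in cation-adjusted Mueller-Hinton broth with 20 μM apo-transferrin, compound at 64 down to […], inoculum set to 0.5 McFarland. E. coli J53 transformed with pBC-SK(+) carrying the synthetic beta-lactamase gene was used. Plates were incubated 18 h at 37 °C; MIC is the lowest concentration giving a clear well.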

Assay [6] deals with Isogenic E. coli J58 strain carrying KPC-3. Kind of assay: MIC determination, isogenic E. coli strains. The following applies: Escherichia coli, 18 h, read-out: Mimimum Inhibitory Concentrations, KPC-3. The procedure, abridged: as §3
Assay [7] has as its system Isogenic E. coli J58 strain carrying NDM-1. The assay is described as follows: MIC determination, isogenic E. coli strains. The following applies: Escherichia coli, 18 h, read-out: Mimimum Inhibitory Concentrations, NDM-1. The procedure, abridged: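 E. coli J53 transformed with a pBC-SK(+) plasmid encoding NDM-1 was adjusted to 0.08-0.1 OD600. It was grown 18 h at 37° C in CAMH broth containing 20 μM apo-transferrin with twofold compound dilutions from 64 μg/mL. MIC was taken as the lowest concentration giving a transparent well.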

Assay [8] concerns Isogenic E. coli J58 strain carrying VIM-2. The assay is described as follows: MIC determination, isogenic E. coli strains. Particulars: for MIC: Escherichia coli, 18 h, read-out: Mimimum Inhibitory Concentrations, VIM-2; for MICs for an E. coli strain carrying the gene for carbapenemase VIM-1, in words: review of Tables 4-1 and 4-2. In outline:
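E. coli J53 transformed with pBC-SK(+) plasmid carrying synthesized VIM-2 gene, grown in LB to OD600 >0.1, adjusted to 0.08–0.1 OD600 in CAMH broth.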

For assay [9], the system named is Isogenic E. coli J58 strain carrying IMP-1. The assay is described as follows: MIC determination, isogenic E. coli strains. The procedure, abridged: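 Broth microdilution in cation-adjusted Mueller-Hinton broth with 20 μM apo-transferrin, compound serially diluted two-fold from 64 μg/mL, against E. coli J53 carrying plasmid-borne IMP-1. Inoculum adjusted to 0.5 McFarland; plates incubated 18 h at 37° C. MIC taken as lowest concentration giving a clear well.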

In assay [10] the test system is Pseudomonas aeruginosa PA (URMC-3). The assay is described as follows: MIC determination. Particulars: Pseudomonas aeruginosa; PA (URMC-3); CAMH broth, 20 μM Apo-Transferrin, 37° C., 18 hours; read-out: Minimum Inhibitory Concentrations, PA (URMC-3). The method, then: (§4) Sterile technique was used throughout these experiments. Suspensions of organisms were removed from storage (−80° C.) and partially thawed. Partially thawed organisms (1 μL) were inoculated into 3 mL sterile LB Broth in a sterile culture tube and capped, then cultured at 37° C. with shaking for 4-5 hours until the optical density at 600 nm (OD600) was greater than 0.1 on a single beam spectrophotometer.
(§5) The concentration of organisms was adjusted to 0.08-0.1 OD600 (0.5 McFarland units) by dilution with sterile cation-adjusted Meuller-Hinton (CAMH) broth. The suspensions were used within 30 minutes of preparation.
(§6) A stock solution was made of each test compound by measuring 6.4 mg of the compound on an analytical balance and dissolving it in DMSO (1 mL) to get a transparent solution. The solutions were stored at −20° C. and thawed prior to use.
(§7) Sterile CAMH broth (200 μL) containing 20 μM Apo-Transferrin was pipetted into the first row of 8 columns of a sterile, round-bottomed, transparent, 96-well microplate using an 8-channel pipette equipped with sterile tips. One hundred μL was pipetted into the wells of the remaining 11 rows.
(§8) With an 8-channel pipette equipped with sterile tips, 100 μL of the first row solution was transferred to the second row and mixed. The process was repeated for the second to third rows and continued through row 11. One hundred μL from row 11 was removed and discarded so that all 12 rows contained 100 μL. Row 12 contained no compound and rows 1-11 contained 64, 32, 16, 8, 4, 2, 1, 0.5, 0.25, 0.125, […] of a given compound.
(§9) Inoculant suspensions (0.5 μL) were added to the 12 wells of each column. The plates were then covered and incubated at 37° C. overnight for 18 hours.
(§10) For each organism the MIC was determined by identifying the transparent well with the lowest test compound concentration.

Assay [11] has as its system Pseudomonas aeruginosa PA-RR-(98023895). Kind of assay: MIC determination. The following applies: Pseudomonas aeruginosa; PA-RR-(98023895); CAMH broth, 20 μM Apo-Transferrin, 37° C., 18 hours; read-out: Minimum Inhibitory Concentrations, PA-RR-(98023895). The method, then: as §4, §5, §6, §7, §8, §9, §10
Assay [12] has as its system Pseudomonas aeruginosa PA-RR-(G7294437). Kind of assay: MIC determination. Particulars: Pseudomonas aeruginosa; PA-RR-(G7294437); CAMH broth, 20 μM Apo-Transferrin, 37° C., 18 hours; read-out: Minimum Inhibitory Concentrations, PA-RR-(G7294437). The method, then:
as §4, §5, §6, §7, §8, §9, §10

In assay [13] the test system is Pseudomonas aeruginosa PA-RR-(G7304100). The assay is described as follows: MIC determination. The following applies: Pseudomonas aeruginosa; PA-RR-(G7304100); CAMH broth, 20 μM Apo-Transferrin, 37° C., 18 hours; read-out: Minimum Inhibitory Concentrations, PA-RR-(G7304100). The protocol: as §4, §5, §6, §7, §8, §9, §10
The subject of assay [14] is Pseudomonas aeruginosa PA-RR-(G8062859). The assay is described as follows: MIC determination. The following applies: Pseudomonas aeruginosa; PA-RR-(G8062859); CAMH broth, 20 μM Apo-Transferrin, 37° C., 18 hours; read-out: Minimum Inhibitory Concentrations, PA-RR-(G8062859). The protocol:
as §4, §5, §6, §7, §8, §9, §10

The test system of assay [15] is Isogenic E. coli J58 strain carrying SHV-1. Kind of assay: MIC determination, isogenic E. coli strains. The following applies: Escherichia coli, 18 h, read-out: Mimimum Inhibitory Concentrations, SHV-1. The procedure, abridged: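 MIC is the lowest compound concentration leaving a transparent well after overnight (18 h) incubation at 37 °C. The test strain was E. coli J53 expressing plasmid-borne SHV-1 beta-lactamase from pBC-SK(+), adjusted to 0.5 McFarland. Compounds were twofold serially diluted, starting at 64 μg/mL, in CAMH broth supplemented with 20 μM apo-transferrin.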

Data on four molecules can be found in US20190100534A1, “Cephem Compounds with Latent Reactive Groups” (Gladius Pharmaceuticals, Inc., priority 2017, published 2019).

Molecules are shown by their SMILES.

As to `C#CC[N+]1(Cc2ccc(C=CC3=C(C(=O)O)N4C(=O)[C@@H](NC(=O)/C(=N\OC(C)(C)C(=O)O)c5csc(N)n5)[C@H]4SC3)cc2)CCc2cc(O)c(O)cc2C1` (mixture of isomers) [Compound 446, 2-(4-((E/Z)-2-((6R,7R)-7-((Z)-2-(2-aminothiazol-4-yl)-2-(((2-carboxypropan-2-yl)oxy)imino)acetamido)-2-carboxy-8-oxo-5-thia-1-azabicyclo[4.2.0]oct-2-en-3-yl)vinyl)benzyl)-6,7-dihydroxy-2-(prop-2-yn-1-yl)-1,2,3,4-tetrahydroisoquinolin-2-ium], the MIC is 0.13 µg/mL in the assay on E. coli J53 Alone; 0.25 µg/mL in assay [1]; 0.25 µg/mL in assay [2]; 0.25 µg/mL in assay [3]; 0.25 µg/mL in assay [4]; 2 µg/mL in assay [5]. In addition, the MIC was 1 µg/mL in [6]; greater than 64 µg/mL in [7]; 0.25 µg/mL in [8]; 1 µg/mL in [9] (Escherichia coli, 18 h, read-out: Mimimum Inhibitory Concentrations, IMP-1). The “Mimimum Inhibitory Concentrations, J53 Alone” value in the assay on E. coli J53 Alone is 0.13 microgram/mL.
Consider `CC(C)(O/N=C(\C(=O)N[C@@H]1C(=O)N2C(C(=O)O)=C(C=Cc3ccc(C[N+]4(C)Cc5c(Cl)c(O)c(O)c(Cl)c5C4)cc3)CS[C@H]12)c1csc(N)n1)C(=O)O` (mixture of isomers) [Compound 431, 2-(4-((E/Z)-2-((6R,7R)-7-((Z)-2-(2-aminothiazol-4-yl)-2-(((2-carboxypropan-2-yl)oxy)imino)acetamido)-2-carboxy-8-oxo-5-thia-1-azabicyclo[4.2.0]oct-2-en-3-yl)vinyl)benzyl)-4,7-dichloro-5,6-dihydroxy-2-methylisoindolin-2-ium], for which the MIC in [10] was 1 µg/mL; in assay [11], 4 µg/mL; in assay [12], no more than 0.06 µg/mL; in assay [13], no more than 0.06 µg/mL; in assay [14], 0.5 µg/mL; in the assay on E. coli J53 Alone it was no more than 0.06 µg/mL. The MIC is 1 µg/mL in assay [1]; 0.13 µg/mL in assay [15]; 0.13 µg/mL in assay [3]; 0.13 µg/mL in assay [4]; greater than 64 µg/mL in assay [7]; no more than 0.06 µg/mL in [8]. The “Mimimum Inhibitory Concentrations, J53 Alone” value in the assay on E. coli J53 Alone is reported as no more than 0.06 microgram/mL. In assay [8], the “MICs for an E. coli strain carrying the gene for carbapenemase VIM-1, in words” value is reported as “low microgram/mL MICs”.
Turning to `CC(C)(O/N=C(\C(=O)N[C@@H]1C(=O)N2C(C(=O)O)=C(C=Cc3ccc(C[n+]4ccc(-c5ccc(O)c(O)c5)cc4)cc3)CS[C@H]12)c1csc(N)n1)C(=O)O` (mixture of isomers) [Compound 412, 1-(4-((E/Z)-2-((6R,7R)-7-((Z)-2-(2-aminothiazol-4-yl)-2-(((2-carboxypropan-2-yl)oxy)imino)acetamido)-2-carboxy-8-oxo-5-thia-1-azabicyclo[4.2.0]oct-2-en-3-yl)vinyl)benzyl)-4-(3,4-dihydroxyphenyl)pyridin-1-ium], the MIC is no more than 0.06 µg/mL in assay [10]; 4 µg/mL in assay [11]; 1 µg/mL in assay [12]; no more than 0.06 µg/mL in assay [13]; 1 µg/mL in assay [14]; no more than 0.06 µg/mL in the assay on E. coli J53 Alone. Besides, the MIC is 0.5 µg/mL in [3], 0.13 µg/mL in assay [4], greater than 64 µg/mL in assay [7] and 0.5 µg/mL in [8]. In the assay on E. coli J53 Alone, the “Mimimum Inhibitory Concentrations, J53 Alone” value is no more than 0.06 microgram/mL.
For the molecule `CC(C)(O/N=C(\C(=O)N[C@@H]1C(=O)N2C(C(=O)O)=C(C=Cc3ccc(C[N+]4(C)Cc5cc(O)c(O)c(Cl)c5C4)cc3)CS[C@H]12)c1csc(N)n1)C(=O)O` (mixture of isomers) [Compound 432, 2-(4-((E/Z)-2-((6R,7R)-7-((Z)-2-(2-aminothiazol-4-yl)-2-(((2-carboxypropan-2-yl)oxy)imino)acetamido)-2-carboxy-8-oxo-5-thia-1-azabicyclo[4.2.0]oct-2-en-3-yl)vinyl)benzyl)-4-chloro-5,6-dihydroxy-2-methylisoindolin-2-ium], the MIC was 1 µg/mL in assay [10]; 4 µg/mL in [11]; no more than 0.06 µg/mL in assay [12]; no more than 0.06 µg/mL in assay [13]; 0.5 µg/mL in [14]; no more than 0.06 µg/mL in the assay on E. coli J53 Alone. Besides, the MIC in [1] was no more than 0.06 µg/mL; in assay [3], no more than 0.06 µg/mL; in [4] it was no more than 0.06 µg/mL; in assay [7] it was greater than 64 µg/mL; in assay [8], no more than 0.06 µg/mL. Moreover, the “Mimimum Inhibitory Concentrations, J53 Alone” value in the assay with E. coli J53 Alone is listed as no more than 0.06 microgram/mL. Moreover, in assay [8], the “MICs for an E. coli strain carrying the gene for carbapenemase VIM-1, in words” value was “low microgram/mL MICs”. In addition, the “MICs for an E. coli strain carrying the gene for carbapenemase IMP-1, in words” value in [9] (review of Tables 4-1 and 4-2) is “low microgram/mL MICs”.
